# Reference: patent publication EP4603105A1, “PHARMACEUTICAL COMPOSITION CONTAINING CYCLIC COMPOUND HAVING SELECTIVE KRAS INHIBITORY EFFECT AGAINST HRAS AND NRAS” (CHUGAI SEIYAKU KABUSHIKI KAISHA, priority 2022, dated 2024)
# pIC50, pKd: −log10 of the molar value. Read-outs that look alike come from different tables or passages of the source.
# Key:
# HRAS wild-type protein = HRAS wild-type protein (Homo sapiens, UniProt P01112); assay: Binding to HRAS by surface plasmon resonance (SPR), KD and KD ratio to KRAS
# Summary of the method: (§1)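 Measured at 30°C: SPR with GDP-loaded, E. coli-expressed biotin-Avi RAS captured (~100–300 RU), ascending 75 s compound injections, HBS pH 7.4 with GDP, MgCl2, 4% DMSO. KD from 1:1 fit.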
# [1] = target: GDP-bound KRAS wild-type protein (Homo sapiens, UniProt P01116); assay: Binding to KRAS by surface plasmon resonance (SPR), dissociation constant KD
# Summary of the method: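 GDP-bound biotin-Avi RAS captured at ~100–300 RU, 30°C, pH 7.4 HBS containing 10 µM GDP, 10 mM MgCl2, 1 mM DTT, 0.01% Tween 20 and 4% DMSO. KD by 1:1 fitting.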
# [2] = target: GDP-bound NRAS wild-type protein (Homo sapiens, UniProt P01111); assay: Binding to NRAS by surface plasmon resonance (SPR), KD and KD ratio to KRAS
# Summary of the method: as §1
# [3] = system: human lung cancer strain NCI-H441; assay: NCI-H441 cell proliferation inhibitory activity (CellTiter-Glo, 4 days); assay type: cell-based; details: read-out: NCl-H441 IC50
# Summary of the method: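 Signal came from […] measured per well once the reagent was added. Beforehand, cells were cultured at 37°C and 5% carbon dioxide on a compound series serially diluted in dimethyl sulfoxide.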
# [4] = ratio of KD with respect to HRAS wild-type protein to KD with respect to KRAS
# [5] = Single Cycle Kinetics, 1:1 binding model
# [6] = ratio of KD with respect to GDP-bound NRAS wild-type protein to KD with respect to KRAS
# [7] = 50% proliferation inhibitory concentration, four days
# [8] = ratio of KD for HRAS wild-type protein to KD for KRAS
# [9] = ratio of KD for GDP-bound NRAS wild-type protein to KD for KRAS
# HRAS wild-type protein, sequence (P01112 whole entry): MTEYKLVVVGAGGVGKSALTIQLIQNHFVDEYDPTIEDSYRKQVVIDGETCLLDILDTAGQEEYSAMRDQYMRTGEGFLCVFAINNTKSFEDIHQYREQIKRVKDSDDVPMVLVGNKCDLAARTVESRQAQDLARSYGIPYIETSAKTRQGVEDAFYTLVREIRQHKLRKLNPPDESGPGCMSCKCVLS
# GDP-bound NRAS wild-type protein, sequence (P01111 whole entry): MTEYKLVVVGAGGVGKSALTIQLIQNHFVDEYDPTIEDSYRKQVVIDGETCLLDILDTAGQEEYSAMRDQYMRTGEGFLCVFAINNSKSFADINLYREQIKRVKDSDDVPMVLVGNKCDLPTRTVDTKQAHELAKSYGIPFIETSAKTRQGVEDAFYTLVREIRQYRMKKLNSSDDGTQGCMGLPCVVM
# GDP-bound KRAS wild-type protein, sequence (P01116 1-188 isoform P01116-2): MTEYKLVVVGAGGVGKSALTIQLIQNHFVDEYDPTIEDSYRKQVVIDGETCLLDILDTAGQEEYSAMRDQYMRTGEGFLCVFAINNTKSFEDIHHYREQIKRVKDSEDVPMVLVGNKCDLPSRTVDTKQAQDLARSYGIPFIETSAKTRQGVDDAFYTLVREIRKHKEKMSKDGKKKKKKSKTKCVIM
Compound,HRAS /KRAS (HRAS wild-type protein; [4]),"pKd [1, 5]","NRAS /KRAS [2, 6]","pIC50 [3, 7]",HRAS /KRAS (HRAS wild-type protein; [8]),pKd ([1]; 1:1 binding model),"NRAS /KRAS [2, 9]","pIC50 ([3]; NCI-H441 cells, 4 days)",pKd ([1]; Single Cycle Kinetics)
CCO[C@@H]1C[C@H]2C(=O)NC3(CCC3)C(=O)N(C)[C@@H](C(CC)CC)C(=O)N(C)[C@H](C(=O)N(C)C)CC(=O)N(C)[C@@H](CC)C(=O)N[C@@H]([C@@H](C)CC)C(=O)N(C)CC(=O)N(C)[C@H]3C/C=C\CCN(C3=O)[C@@H](Cc3ccc(C(F)(F)F)cc3)C(=O)N(C)CC(=O)N[C@@H](CCc3cc(F)c(C(F)(F)F)c(F)c3)C(=O)N2C1 [PP1200],A (a compound having 10 or more and less than 20 is denoted as A),9.70,AA (a compound having 20 or more is denoted as AA),7.72,–,–,–,–,–
CCCOC[C@H]1C(=O)N[C@@H]([C@@H](C)CC)C(=O)N(C)CC(=O)N(C)[C@H]2C/C=C\CCN(C2=O)[C@@H](Cc2ccc(C)cc2)C(=O)N(C)CC(=O)N[C@@H](CCc2ccc(C(F)(F)F)c(OC)c2)C(=O)N2C[C@H](OCC)C[C@H]2C(=O)NC2(CC(C)(C)C2)C(=O)N(C)[C@@H](CC(C)(C)C)C(=O)N(C)[C@H](C(=O)N(C)C)CC(=O)N1C [PP2712],–,–,–,–,B (a compound having 3 or more and less than 10 is denoted as B),9.96,A (a compound having 10 or more and less than 20 is denoted as A),8.20,–
CCO[C@@H]1C[C@H]2C(=O)NC3(CCC3)C(=O)N(C)[C@@H](C(CC)CC)C(=O)N(C)[C@H](C(=O)N(C)C)CC(=O)N(C)[C@@H](CC)C(=O)N[C@@H]([C@@H](C)CC)C(=O)N(C)CC(=O)N(C)[C@H]3C/C=C\CCN(C3=O)[C@@H](Cc3ccc(C(F)(F)F)cc3)C(=O)N(C)CC(=O)N[C@@H](CCc3ccc4sccc4c3)C(=O)N2C1 [PP1223],A (a compound having 10 or more and less than 20 is denoted as A),8.92,AA (a compound having 20 or more is denoted as AA),6.93,–,–,–,–,–
CCO[C@@H]1C[C@H]2C(=O)NC3(CC(C)(C)C3)C(=O)N(C)[C@@H](C3CCCC3)C(=O)N(C)[C@H](C(=O)N(C)CC)CC(=O)N(C)[C@@H]([C@H](C)OC)C(=O)N[C@@H]([C@@H](C)CC)C(=O)N3CCC[C@H]3C(=O)N(C)[C@H]3C/C=C\CCN(C3=O)[C@@H](Cc3ccc(C)cc3)C(=O)N(C)CC(=O)N[C@@H](CCc3ccc(C(F)(F)F)c(Cl)c3)C(=O)N2C1 [PP3165],–,–,–,–,A (a compound having 10 or more and less than 20 is denoted as A),–,A (a compound having 10 or more and less than 20 is denoted as A),6.32,8.72
C#CCN1CC(=O)N(C)[C@H]2C/C=C\CCN(C2=O)[C@@H](Cc2ccc(C(F)F)cc2)C(=O)N(C)CC(=O)N[C@@H](CCc2cc(F)c(C(F)(F)F)c(F)c2)C(=O)N2C[C@H](OC(C)C)C[C@H]2C(=O)N(C)C2(CCC2)C(=O)N(C)[C@@H](C(CC)CC)C(=O)N(C)[C@H](C(=O)N(C)C)CC(=O)N(C)[C@@H](COCCC)C(=O)N[C@@H]([C@@H](C)OC)C1=O [PP3485],–,–,–,–,A (a compound having 10 or more and less than 20 is denoted as A),–,A (a compound having 10 or more and less than 20 is denoted as A),7.92,9.12
CCO[C@@H]1C[C@H]2C(=O)NC3(CCC3)C(=O)N(C)[C@@H](C3CCCC3)C(=O)N(C)[C@H](C(=O)N(C)C)CC(=O)N(C)[C@@H](CC3CCCC3)C(=O)N[C@@H]([C@@H](C)CC)C(=O)N(C)CC(=O)N(C)[C@H]3C/C=C\CCN(C3=O)[C@@H](Cc3ccc(C(F)(F)F)cc3)C(=O)N(C)CC(=O)N[C@@H](CCc3ccc(Cl)c(Cl)c3)C(=O)N2C1 [PP1254],A (a compound having 10 or more and less than 20 is denoted as A),9.70,AA (a compound having 20 or more is denoted as AA),7.55,–,–,–,–,–
C#CC[C@H]1C(=O)N[C@@H]([C@@H](C)CC)C(=O)N(C)CC(=O)N(C)[C@H]2C/C=C\CCN(C2=O)[C@@H](Cc2ccc(C(F)(F)F)cc2)C(=O)N(C)CC(=O)N[C@@H](CCc2ccc(C(F)(F)F)c(OC)c2)C(=O)N2C[C@H](OCC)C[C@H]2C(=O)N(C)C2(CCC2)C(=O)N(C)[C@@H](C2CCCC2)C(=O)N(C)[C@H](C(=O)N(C)C)CC(=O)N1C [PP3230],–,–,–,–,A (a compound having 10 or more and less than 20 is denoted as A),–,A (a compound having 10 or more and less than 20 is denoted as A),8.59,10.52
CCC[C@H]1C(=O)N[C@@H]([C@@H](C)CC)C(=O)N(C2CC2)CC(=O)N(C)[C@H]2C/C=C\CCN(C2=O)[C@@H](Cc2ccc(C)cc2)C(=O)N(C)CC(=O)N[C@@H](CCc2ccc(Cl)c(Cl)c2)C(=O)N2C[C@H](OCC)C[C@H]2C(=O)NC2(CC(C)(C)C2)C(=O)N(C)[C@@H](CC2CCC2)C(=O)N(C)[C@H](C(=O)N(C)C)CC(=O)N1C [PP2761],–,–,–,–,A (a compound having 10 or more and less than 20 is denoted as A),8.55,A (a compound having 10 or more and less than 20 is denoted as A),7.16,–
CCO[C@@H]1C[C@H]2C(=O)NC3(CCC3)C(=O)N(C)[C@@H](C3CCCC3)C(=O)N(C)[C@H](C(=O)N(C)C)CC(=O)N(C)[C@@H](CC(C)C)C(=O)N[C@@H]([C@@H](C)CC)C(=O)N(C)CC(=O)N(C)[C@H]3C/C(F)=C\CCN(C3=O)[C@@H](Cc3ccc(C(F)(F)F)cc3)C(=O)N(C)CC(=O)N[C@@H](CCc3cc(F)c(C(F)(F)F)c(F)c3)C(=O)N2C1 [PP3514],–,–,–,–,B (a compound having 3 or more and less than 10 is denoted as B),–,B (a compound having 3 or more and less than 10 is denoted as B),7.91,9.77
CCC[C@H]1C(=O)N[C@@H]([C@@H](C)CC)C(=O)N(C)CC(=O)N(C)[C@H]2C/C=C\CCN(C2=O)[C@@H](Cc2ccc(C(F)(F)F)cc2)C(=O)N(C)CC(=O)N[C@@H](CCc2ccc(C(F)(F)F)c(Cl)c2)C(=O)N2CC3(CC3)C[C@H]2C(=O)NC2(CCC2)C(=O)N(C)[C@@H]([C@@H](C)CC)C(=O)N(C)[C@H](C(=O)N(C)C)CC(=O)N1C [PP3416],–,–,–,–,A (a compound having 10 or more and less than 20 is denoted as A),–,AA (a compound having 20 or more is denoted as AA),7.89,9.60
CCC(CC)[C@H]1C(=O)N(C)[C@H](C(=O)N(C)C)CC(=O)N(C)[C@@H](COC)C(=O)N[C@@H]([C@@H](C)CC)C(=O)N(C)CC(=O)N(C)[C@H]2C/C=C\CCN(C2=O)[C@@H](CC2CCC(F)(F)CC2)C(=O)N(C)CC(=O)N[C@@H](CCc2ccc(C(F)(F)F)c(Cl)c2)C(=O)N2C[C@@H](C)C[C@H]2C(=O)NC2(CC(C)(C)C2)C(=O)N1C [PP2454],–,–,–,–,A (a compound having 10 or more and less than 20 is denoted as A),8.92,AA (a compound having 20 or more is denoted as AA),7.10,–
CCC[C@H]1C(=O)N[C@@H](CC(C)C)C(=O)N2C[C@@H](OC)C[C@H]2C(=O)N(C)[C@H]2C/C=C\CCN(C2=O)[C@@H](Cc2ccc(C)cc2)C(=O)N(C)CC(=O)N[C@@H](CCc2cc(F)c(C(F)(F)F)c(F)c2)C(=O)N2C[C@H](OCC)C[C@H]2C(=O)NC2(CC(C)(C)C2)C(=O)N(C)[C@@H](C2CCCC2)C(=O)N(C)[C@H](C(=O)N(C)C)CC(=O)N1C [PP2553],–,–,–,–,B (a compound having 3 or more and less than 10 is denoted as B),8.47,A (a compound having 10 or more and less than 20 is denoted as A),6.92,–
CCC[C@H]1C(=O)N[C@@H](CC(C)C)C(=O)N(C2CC2)CC(=O)N(C)[C@H]2C/C=C\CCN(C2=O)[C@@H](Cc2ccc(C)cc2)C(=O)N(C)CC(=O)N[C@@H](CCc2ccc(C(F)(F)F)c(OC)c2)C(=O)N2C[C@H](OCC)C[C@H]2C(=O)NC2(CC(C)(C)C2)C(=O)N(C)[C@@H](C2CCCC2)C(=O)N(C)[C@H](C(=O)N(C)C)CC(=O)N1C [PP2510],–,–,–,–,B (a compound having 3 or more and less than 10 is denoted as B),8.41,A (a compound having 10 or more and less than 20 is denoted as A),6.74,–
CCC[C@H]1C(=O)N[C@@H]([C@@H](C)CC)C(=O)N2CCC[C@H]2C(=O)N(C)[C@H]2C/C=C\CCN(C2=O)[C@@H](CC2CCCCC2)C(=O)N(C)CC(=O)N[C@@H](CCc2ccc(C(F)(F)F)c(OC)c2)C(=O)N2C[C@@H](C)C[C@H]2C(=O)N(C)C2(CCC2)C(=O)N(C)[C@@H](C2CCCC2)C(=O)N(C)[C@H](C(=O)N(C)C)CC(=O)N1C [PP2374],–,–,–,–,A (a compound having 10 or more and less than 20 is denoted as A),9.07,A (a compound having 10 or more and less than 20 is denoted as A),7.17,–
CCCOC[C@H]1C(=O)N[C@@H]([C@@H](C)CC)C(=O)N(C2CC2)CC(=O)N(C)[C@H]2C/C=C\CCN(C2=O)[C@@H](Cc2ccc(C)cc2)C(=O)N(C)CC(=O)N[C@@H](CCc2ccc(C(F)(F)F)c(OC)c2)C(=O)N2C[C@@H](C)C[C@H]2C(=O)N(C)C2(CCC2)C(=O)N(C)[C@@H](C2CCCC2)C(=O)N(C)[C@H](C(=O)N(C)C)CC(=O)N1C [PP2367],–,–,–,–,B (a compound having 3 or more and less than 10 is denoted as B),10.12,A (a compound having 10 or more and less than 20 is denoted as A),8.68,–
